In patent publication US12410148B2, “Antibody drug conjugates” (Pharma Mar, S.A., priority 2013, dated 2025):
Values after ≈ are worked out from the molar mass of the structure shown. Values joined by “and” are separate entries in the source; they are usually repeats but may differ in a detail not shown here. Equal values may be shown once. Read-outs that look alike come from different tables or passages of the source.

Key:
[1] = test system: Raji-clone #18 (null CD5 expression); experiment: In vitro cytotoxicity, MTT assay, 72 h dose-response; assay type: cell-based; conditions: Homo sapiens
Description: (§6) Briefly, MTT solution was added to the cell cultures at a final concentration of 0.5 mg/mL, and incubated for 1 to 4 hours at 37° C. until formazan crystals are formed. Culture medium is carefully removed from the cell cultures and formazan crystals resuspended in 100 μl DMSO. […] Cell survival was expressed as percentage of control, untreated cell survival.

NB-4 cells = experiment: as above; assay type: cell-based; conditions: Homo sapiens, CD13+
Description: as §6

[2] = test system: Karpas-299, U937, Raji and RPMI-8226 cells; experiment: In vitro cytotoxicity, whole CD4 cell panel; conditions: Homo sapiens
Description: (§1) All tumor cell lines used in this study were obtained from the American Type Culture Collection (ATCC), unless otherwise indicated; BT-474 (ATCC HTB-20, Breast Ductal Carcinoma), SK-BR-3 (ATCC HTB-30, Breast Adenocarcinoma) and HCC-1954 (ATCC CRL-2338, Breast Ductal Carcinoma), all HER2+; MDA-MB-231 (ATCC HTB-26, Breast Adenocarcinoma) and MCF-7 (ATCC HTB-22 Breast Adenocarcinoma, pleural effusion), all HER2-; SK-OV-3 (ATCC HTB-77, Ovary Adenocarcinoma), HER2+; NB-4 (Acute Promyelocytic Leukemia, APL, CD13+, M. Lanotte et al. (1991) NB4, a maturation inducible cell line with t(15;17) marker isolated from a human acute promyelocytic leukemia (M3). Blood 77, 1080-1086), (CD13+) and U937 (ATCC CRL-1 593.2, Histiocytic Lymphoma, CD13+ and CD4+); Raji (ATCC CCL-86, Burkitt's Lymphoma) (CD13−, CD20+, CD5−, and CD4−); RPMI-8226 (ATCC CRM-CCL-155, Multiple Myeloma) (CD13−, CD20−, CD5− and CD4−); Karpas-299 (DSMZ ACC-31, Non-Hodgkin's Lymphoma) (CD20−, CD5+, and CD4+); MOLT-4 (ATCC CRL-1 582, Acute Lymphoblastic Leukemia, CD5+). In addition, the two Raji cell (ATCC CCL-86, Burkitt's Lymphoma) clones used in this study Raji-clone #10 (high CD5 expression) and Raji-clone18 (null CD5 expression), were provided by Dr. Juan M. Zapata (Instituto de Investigaciones Biomedicas “Alberto Sols”, CSIC-UAM, Madrid, Spain). Cells were maintained at 37° C., 5% CO 2 and 95% humidity in Dulbecco's Modified Eagle's Medium (DMEM) (for MCF and MDA-MB-231 cells), RPMI-1640 (for SK-BR-3, HCC-1954, NB-4, U937, Raji, RPMI-8226, Karpas-299, MOLT-4, Raji-clone #10 and Raji-clone #18 cells), RPMI-1640+1% ITS (for BT-474 cells) or McCOyS (for SK-OV-3 cells), all media supplemented with 10% Fetal Calf Serum (FCS) and 100 units/mL penicillin and streptomycin.
(§2) For suspension cells: A standard metabolic assay using MTT (3-(4,5-Dimethylthiazol-2-yl)-2,5-diphenyltetrazolium bromide) was adapted for quantitative measurement of cell growth and cytotoxicity, as described in T. Mosmann (1983) Rapid colorimetric assay for cellular growth and survival: Application to proliferation and cytotoxicity assays. J. Immunol. Meth., 65, 55-63. Briefly, MTT solution was added to the cell cultures at a final concentration of 0.5 mg/mL, and incubated for 1 to 4 hours at 37° C. until formazan crystals are formed. Culture medium is carefully removed from the cell cultures and formazan crystals resuspended in 100 μl DMSO. After mixing to assure solubilization, the quantity of formazan (presumably directly proportional to the number of viable cells) is measured by recording changes in absorbance at 570 nm using a plate reading spectrophotometer. Cell survival was expressed as percentage of control, untreated cell survival.
(§3) The IC50 value refers to the concentration of compound inducing a 50% of cell death as compared to the control cell survival.
(§4) The in vitro cytotoxic activity of ADC16 along with the parent cytotoxic Compounds 1, 4, and 40, was evaluated against different human cancer cell lines expressing or not the CD4 antigen, including Karpas-299 and U937 (both CD4+); Raji and RPMI-8226 (both CD4−). Standard dose-response (DR) curves for 72 hours were performed.

RPMI-8226 cells = experiment: In vitro cytotoxicity, MTT assay, 72 h dose-response; assay type: cell-based, human; conditions: CD13−, CD20−, CD5−, CD4−
Description: as §6

MDA-MB-231 cells = experiment: In vitro cytotoxicity, SRB assay, 72 h dose-response; assay type: cell-based; conditions: Homo sapiens, MDA-MB-231, 72 h
Description: (§5) Nature Protocols, 1, 1112-1 116.

MCF-7 cells = experiment: as above; assay type: cell-based; conditions: Homo sapiens, MCF7, 72 h
Description: as §5

[3] = test system: NB4, U937, Raji and RPMI-8226 cells; experiment: In vitro cytotoxicity, whole CD13 cell panel; conditions: for IC50: Homo sapiens
Description: as §1, §2, §3
The in vitro cytotoxic activity of ADC9 along with the parent cytotoxic Compounds 1 and 4, was evaluated against different human tumor cell lines expressing or not the CD13 receptor, including NB4 and U937 (CD13 positive cells) and Raji and RPMI-8226 (CD13 negative cells). Standard dose-response (DR) curves for 72 hours were performed.

U937 cells = experiment: In vitro cytotoxicity, MTT assay, 72 h dose-response; assay type: cell-based, human; conditions: CD13+, CD4+
Description: as §6

[4] = test system: Karpas-299, MOLT-4, Raji and RPMI-8226 cells; experiment: In vitro cytotoxicity, whole CD5 cell panel; conditions: for IC50: Homo sapiens
Description: as §1, §2, §3
as §4, with “ADC14” for “ADC16”, “CD5” for “CD4”, “MOLT-4” for “U937”, “CD5+);” for “CD4+);”, “CD5−).” for “CD4−).”

[5] = test system: Raji-clone #10 (high CD5 expression); experiment: In vitro cytotoxicity, MTT assay, 72 h dose-response; assay type: cell-based; conditions: Homo sapiens
Description: as §6

MOLT-4 cells = experiment: as above; assay type: cell-based; conditions: Homo sapiens, CD5+
Description: as §6

Karpas-299 cells = experiment: as above; assay type: cell-based, human; conditions: CD20−, CD5+, CD4+
Description: as §6

[6] = read-out: IC50 values across the different cell lines tested (range)
[7] = read-out: mean IC50 value across the whole cell panel
[8] = Homo sapiens, RPMI-8226, 72 h, read-out: IC50
[9] = Homo sapiens, KARPAS-299, 72 h, read-out: IC50

| SMILES | IC50 ([1]; C#18 (null CD5)) | IC50 ([1]; clone #18, CD5 null) | IC50 (NB-4 cells) | IC50 [2, 6] | IC50 [2, 7] | IC50 (RPMI-8226 cells; [8]) | IC50 (MDA-MB-231 cells; HER2−, 72 h, read-out: IC50) | IC50 (MCF-7 cells; HER2−, 72 h, read-out: IC50) | IC50 [3, 6] | IC50 [3, 7] | IC50 [4, 6] | IC50 [4, 7] | IC50 ([5]; C#10 (high CD5)) | IC50 ([5]; clone #10, CD5 expressing) | IC50 (MOLT-4 cells) | IC50 (Karpas-299 cells; [9]) | IC50 (RPMI-8226 cells) | IC50 (RPMI-8226 cells; read-out: IC50) | IC50 (U937 cells) | IC50 (U937 cells; read-out: IC50) | further results |
| --- | --- | --- | --- | --- | --- | --- | --- | --- | --- | --- | --- | --- | --- | --- | --- | --- | --- | --- | --- | --- | --- |
| COC1=CC[C@@H]([C@@H](C)/C=C(C)/C=C\C=C/C(=O)N[C@H](C(=O)N/C=C\C[C@H](C/C=C(\C)Cl)OC(=O)NCCCNC(=O)CCCCCN2C(=O)C=CC2=O)C(C)(C)C)OC1=O [Compound 1] | 0.038 µg/mL and 44.4 nM | 44 nM | 0.000805 µg/mL and 0.939 nM | 0.0015 µg/mL to 0.0073 µg/mL and 1.7 nM to 8.6 nM | 0.0034 µg/mL and 3.9 nM | 0.0025 µg/mL and 2.92 nM | 0.0028 µg/mL and 3.27 nM | 0.0037 µg/mL and 4.32 nM | 0.0008 µg/mL to 0.0063 µg/mL and 0.94 nM to 7.3 nM | 0.0028 µg/mL and 3.3 nM | 1.8 to 11 ng/mL (≈ 2.1 to 12.8 nM) | 0.0046 µg/mL and 5.3 nM | 0.0029 µg/mL and 3.39 nM | 3.4 nM | 0.00335 µg/mL and 3.91 nM | 0.0019 µg/mL and 2.22 nM |  |  |  |  | IC50 (U937 cells; Homo sapiens, U-937, 72 h, read-out: IC50): 0.00165 µg/mL and 1.93 nM |
| COC1=CC[C@@H]([C@@H](C)/C=C(C)/C=C\C=C/C(=O)N[C@H](C(=O)N/C=C\C[C@H](C/C=C(\C)Cl)OC(=O)NCCCN)C(C)(C)C)OC1=O [Compound 4] | > 15.1 nM and > 0.01 µg/mL |  | 7.9e-05 µg/mL and 0.12 nM | 0.00061 µg/mL to 0.0027 µg/mL and 0.92 nM to 4.1 nM | 0.0012 µg/mL and 1.8 nM | 0.000358 µg/mL and 0.539 nM | 0.00031 µg/mL and 0.468 nM | 0.000415 µg/mL and 0.626 nM | 7.9e-05 µg/mL to 0.00265 µg/mL and 0.12 nM to 4 nM | 0.00084 µg/mL and 1.2 nM | 0.00063 µg/mL to 0.0027 µg/mL and 0.95 nM to 4.1 nM | 0.0013 µg/mL and 1.9 nM | 0.0099 µg/mL and 14.9 nM | 15.7 nM | 0.00091 µg/mL and 1.37 nM | 0.00093 µg/mL and 1.4 nM | 0.00057 µg/mL | 0.859 nM | 0.000278 µg/mL | 0.419 nM | IC20 ([1]; C#18 (null CD5)): 0.00677 µg/mL and 10.2 nM; mean IC50 value across the whole cell panel ([3]; CD13+ and CD13− lines): 1.2 nM; reduction of cytotoxic activity as compared to Compound 40 ([4]; amine containing group): around 1 log; IC20 ([5]; C#10 (high CD5)): 0.00465 µg/mL and 7.01 nM; IC50 (Karpas-299 cells; read-out: IC50): 1.38 nM |
| COC1=CC[C@@H]([C@@H](C)/C=C(C)/C=C\C=C/C(=O)N[C@H](C(=O)N/C=C\C[C@H](C/C=C(\C)Cl)OC(N)=O)C(C)(C)C)OC1=O [Compound 40] | 0.89 ng/mL | 1.47 nM | 3.1e-05 µg/mL and 0.052 nM | 0.13 nM to 0.47 nM and 7.9e-05 µg/mL to 0.00028 µg/mL | 0.00015 µg/mL and 0.25 nM |  |  |  | 0.031 to 0.17 ng/mL (≈ 0.0511 to 0.28 nM) | 8.6e-05 µg/mL and 0.14 nM | 7.5e-05 µg/mL to 0.00036 µg/mL and 0.12 nM to 0.59 nM | 0.00016 µg/mL and 0.26 nM | 0.495 ng/mL | 0.817 nM | 9.3e-05 µg/mL and 0.154 nM |  | 8.65e-05 µg/mL and 0.00012 µg/mL | 0.143 nM and 0.198 nM | 7.9e-05 µg/mL | 0.131 nM | IC50 (MDA-MB-231 cells): 0.000173 µg/mL and 0.284 nM; IC50 (MCF-7 cells): 0.000132 µg/mL and 0.218 nM; IC50 (Karpas-299 cells): 0.00013 µg/mL; IC50 (Karpas-299 cells; read-out: IC50): 0.142 nM and 0.215 nM |
